This note sets out measurements from patent US8772299B2, “Phenyl piperazine compounds, pharmaceutical composition including the same and use thereof” (SK Biopharmaceuticals Co., Ltd., priority 2008, dated 2014).

The structures appear in SMILES notation. Where a name gives a salt, the structure may show the parent alone.

Broadly, the inhibition is how much of the control response was suppressed. Low readings indicate little suppression, high ones strong suppression.

Assay [1] relates to mice. In words: Tail Suspension Test in Mice (TST). Conditions: reduction in immobility vs control group, 30 mg/kg, po. The assay is classed as in vivo. The source says:
Tail Suspension Test in mice is the well-known animal model to determine antidepressant efficacy of compounds by checking escaping behavior and immobility time of mice. Mice treated with antidepressant drug show escaping behavior continuously comparing with control group.
The mice were mainly treated orally with the test compound dissolved in 30% PEG400 or with only 30% PEG400 as control. Tail of mouse is suspended to the rod of TST equipment and end of tail is fixed with sticky tape. Suspended mouse is incubated during 2 min for training and adaptation and after following 2 min, observe escaping behavior and check immobility time for 4 min. The potent ability of the compounds was determined as percent value of reduction in immobility comparing to control group as 100% baseline.

The target in assay [2] is T1, Serotonin 1A (5-HT1A) receptor (Rattus norvegicus, UniProt P19327).
T1 construct: The cortex tissue were homogenized in 30 volumes of ice-cold 50 mM Tris-HCl buffer; from tissue; host or cells: Sprague-Dawley rat brain cortex membranes
T1 sequence (P19327 1-422): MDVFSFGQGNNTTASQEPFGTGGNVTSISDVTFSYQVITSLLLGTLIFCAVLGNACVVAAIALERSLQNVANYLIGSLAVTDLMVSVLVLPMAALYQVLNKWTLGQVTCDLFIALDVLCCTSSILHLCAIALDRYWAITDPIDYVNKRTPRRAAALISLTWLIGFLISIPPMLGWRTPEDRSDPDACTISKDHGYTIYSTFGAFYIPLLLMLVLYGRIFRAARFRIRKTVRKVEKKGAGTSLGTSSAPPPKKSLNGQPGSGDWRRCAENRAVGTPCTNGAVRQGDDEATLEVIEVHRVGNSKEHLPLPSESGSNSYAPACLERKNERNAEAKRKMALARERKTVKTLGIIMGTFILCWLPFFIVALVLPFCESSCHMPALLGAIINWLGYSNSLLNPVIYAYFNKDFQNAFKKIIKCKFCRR
Description: Serotonin 1A (5-HT1A) receptor inhibition assay, [3H]8-OH-DPAT binding to rat cortex membranes. The conditions noted are these: 10 nM test compound; 0.92 nM [3H]8-OH-DPAT; rat cortex homogenate; 60 min at 25° C. Also noted: species or system Sprague-Dawley (SD) rats. The procedure:
The method to test the ability of compounds to inhibit serotonin 1A(5-HT1A) receptors was using Hall. et al., J Neuro Chem., 1985, 44, p 1685-1696 with modification.
The Sprague-Dawley (SD) rats were killed by decapitation and their brains rapidly removed at 4° C. The cortex tissue were homogenized in 30 volumes of ice-cold 50 mM Tris-HCl buffer (pH7.4) using an ultra-turrax T8 and centrifuged at 48,000 g for 20 min. The supernatant was discarded and the pellet washed twice by resuspension in 20 volumes Tris-HCl and centrifugation, homogenized in 20 volumes Tris-HCl, and incubated at 37° C. for 10 min. Membranes were than collected by centrifugation and washed twice before final resuspension in 10 volumes of 50 mM Tris-HCl, pH7.4.
For binding assays, the incubation medium consisted of 162.5 ug of tissue homogenate, 0.92 nM of [3H]8-OH-DPAT and vehicle or 10 uM of 5-HT or 10 nM of test compounds per well. 5-HT and test compounds were dissolved in distilled water and incubation medium was 50 mM Tris(pH7.4 at room temperature). The assay plates (96 well) were incubated for 60 min at 25° C. The reaction was terminated by rapid filtration using a Tomtec harvester, through GF/C glassfibre filter with 5 times washes of Tris buffer. The radioactivity retained on the filters was counted by scintillation spectroscopy (MicroBeta TriLux, Wallac). The tests were triplicates. Percent inhibition was calculated as below equation.
Total binding is the value of vehicle treated group and specific binding is the values that deduct non-specific binding (i.e. the value of non-specific ligand, 5-HT).

For `CN(C)CCC[C@@]1(c2ccc(F)cc2)OCc2cc(C#N)ccc21` [Estalopram, reference compound], the “% reduction” value in assay [1] was 47, at 30 mg/kg, po %. `COc1ccccc1N1CCN(CCCCOc2ccc(Cn3cnnn3)cc2)CC1` [Example 3, 1-(2-methoxy-phenyl)-4-[4-(4-tetrazol-1-ylmethyl-phenoxy)-butyl]-piperazine] yielded an inhibition at 0.01 µM in assay [2] of 77.8%. As for `COc1ccccc1N1CCN(CCCCOc2ccc(Cn3ncnn3)cc2)CC1` [Example 4, 1-(2-methoxy-phenyl)-4-[4-(4-tetrazol-2-ylmethyl-phenoxy)-butyl]-piperazine], the inhibition at 0.01 µM in assay [2] is 75.9%. The same measure, in the same setting: to `COc1ccccc1N1CCN(CCCCOc2cccc(Cn3cncn3)c2)CC1` [Example 6, 1-(2-methoxy-phenyl)-4-[4-(3-[1,2,4]triazol-1-ylmethyl-phenoxy)-butyl]-piperazine hydrochloride] belongs 50.1%; to `COc1ccccc1N1CCN(CCCCOc2ccc(Cn3cnc4ccccc43)cc2)CC1` [Example 9, 1-(4-{4-[4-(2-methoxy-phenyl)-piperazin-1-yl]-butoxy}-benzyl)-1H-benzoimidazole], 52.2%; to `COc1ccccc1N1CCN(CCCCOc2ccc(Cn3ccnc3C)cc2)CC1` [Example 10, 1-(2-Methoxy-phenyl)-4-{4-[4-(2-methyl-imidazol-1-ylmethyl)-phenoxy]-butyl}-piperazine], 71.8%.

Turning to `COc1ccccc1N1CCN(CCCCOc2ccc(Cn3ncc4ccccc43)cc2)CC1` [Example 13, 1-(4-{4-[4-(2-Methoxy-phenyl)-piperazin-1-yl]-butoxy}-benzyl)-1H-indazole], 0.01 µM produced 50.4% inhibition in assay [2]. Consider `COc1ccccc1N1CCN(CCCCOc2ccc(Cn3nnc4ccccc43)cc2)CC1` [Example 14, 1-(4-{4-[4-(2-Methoxy-phenyl)-piperazin-1-yl]-butoxy}-benzyl)-1H-benzotriazole], for which the inhibition at 0.01 µM in assay [2] worked out at 51.1%.

In assay [2], `COc1ccccc1N1CCN(CCCCOc2ccc(Cn3nnc(-c4ccccc4)n3)cc2)CC1` [Example 15, 1-(2-methoxy-phenyl)-4-{4-[4-(5-phenyl-tetrazol-2-ylmethyl)-phenoxy]-butyl}-piperazine] displayed an inhibition at 0.01 µM of 23.5%.

In the case of `COc1ccccc1N1CCN(CCCCOc2ccc(Cn3nnnc3-c3ccccc3)cc2)CC1` [Example 16, 1-(2-methoxy-phenyl)-4-{4-[4-(5-phenyl-tetrazol-1-ylmethyl)-phenoxy]-butyl}-piperazine], the inhibition at 0.01 µM in assay [2] amounted to 62.5%. The compound `COc1ccccc1N1CCN(CCCCOc2ccc(Cn3nnc(C)n3)cc2)CC1` [Example 17, 1-(2-methoxy-phenyl)-4-{4-[4-(5-methyl-tetrazol-2-ylmethyl)-phenoxy]-butyl}-piperazine] yielded an inhibition at 0.01 µM in assay [2] of 56.4%. As for `COc1ccccc1N1CCN(CCCCOc2ccc(CNc3nccs3)cc2)CC1` [Example 22, (4-{4-[4-(2-methoxy-phenyl)-piperazin-1-yl]-butoxy}-benzyl)-thiazol-2-yl-amine], testing at 0.01 µM in assay [2] gave an inhibition of 53.4%. Same read-out and setting: to `Clc1ccccc1N1CCN(CCCCOc2ccc(Cn3cncn3)cc2)CC1` [Example 23, 1-(2-chloro-phenyl)-4-[4-(4-[1,2,4]triazol-1-ylmethyl-phenoxy)-butyl]-piperazine] belongs 17.2%; to `COc1ccccc1N1CCN(CCCCOc2cccc(Cn3ccnn3)c2)CC1` [Example 25, 1-(2-Methoxy-phenyl)-4-[4-(3-[1,2,3]triazol-1-ylmethyl-phenoxy)-butyl]-piperazine], 45.2%; to `COc1ccccc1N1CCN(CCCCOc2cccc(Cn3nnc(C)n3)c2)CC1` [Example 26, 1-(2-Methoxy-phenyl)-4-{4-[3-(5-methyl-tetrazol-2-ylmethyl)-phenoxy]-butyl}-piperazine], 47%. In assay [2], `COc1ccccc1N1CCN(CCCCOc2cccc(Cn3nnnc3C)c2)CC1` [Example 27, 1-(2-methoxy-phenyl)-4-{4-[3-(5-methyl-tetrazol-1-ylmethyl)-phenoxy]-butyl}-piperazine] had an inhibition at 0.01 µM of 40.9%. In turn, `COc1ccccc1N1CCN(CCCCOc2cccc(CN3CCOCC3)c2)CC1` [Example 29, 4-(3-{4-[4-(2-methoxy-phenyl)-piperazin-1-yl]-butoxy}-benzyl)-morpholine] showed an inhibition at 0.01 µM in assay [2] of 45.8%. For the compound `COc1ccccc1N1CCN(CCCCOc2ccc(Cn3cnc(Cl)c3Cl)cc2)CC1` [Example 30, 1-{4-[4-(4,5-dichloro-imidazol-1-ylmethyl)-phenoxy]-butyl}-4-(2-methoxy-phenyl)-piperazine], in assay [2], the inhibition at 0.01 µM amounted to 38.3%. In assay [2], `Clc1ccccc1N1CCN(CCCCOc2ccc(Cn3ncnn3)cc2)CC1` [Example 31, 1-(2-chloro-phenyl)-4-[4-(4-tetrazol-2-ylmethyl-phenoxy)-butyl]-piperazine] had an inhibition at 0.01 µM of 30.3%. In assay [2], `CN1CCN(Cc2ccc(OCCCCN3CCN(c4ccccc4Cl)CC3)cc2)CC1` [Example 35] returned an inhibition at 0.01 µM of 73.3%. The compound `Cc1nnnn1Cc1ccc(OCCCCN2CCN(c3cccc(Cl)c3Cl)CC2)cc1` [Example 37, 1-(2,3-Dichloro-phenyl)-4-{4-[4-(5-methyl-tetrazol-1-ylmethyl)-phenoxy]-butyl}-piperazine] showed an inhibition at 0.01 µM in assay [2] of 24.8%. `Cc1nnn(Cc2ccc(OCCCCN3CCN(c4cccc(Cl)c4Cl)CC3)cc2)n1` [Example 38, 1-(2,3-Dichloro-phenyl)-4-{4-[4-(5-methyl-tetrazol-2-ylmethyl)-phenoxy]-butyl}-piperazine] registered an inhibition at 0.01 µM in assay [2] of 29.4%. The same measure, in the same setting: to `Clc1ccccc1N1CCN(CCCCOc2ccc(Cn3ccnn3)cc2)CC1` [Example 42, 1-(2-chloro-phenyl)-4-[4-(4-[1,2,3]triazol-1-ylmethyl-phenoxy)-butyl]-piperazine] belongs 36.2%. For `COc1ccccc1N1CCN(CCCCOc2ccc(CNc3nncs3)cc2)CC1` [Example 43, (4-{4-[4-(2-Methoxy-phenyl)-piperazin-1-yl]-butoxy}-benzyl)-[1,3,4]thiadiazol-2-yl-amine], in assay [2], the inhibition at 0.01 µM turned out to be 95.6%. For `Clc1cccc(N2CCN(CCCCOc3ccc(Cn4ccnn4)cc3)CC2)c1Cl` [Example 44, 1-(2,3-dichloro-phenyl)-4-[4-(4-[1,2,3]triazol-1-ylmethyl-phenoxy)-butyl]-piperazine], the inhibition at 0.01 µM in assay [2] was 17.4%. For `COc1ccccc1N1CCN(CCCCOc2ccc(CNc3cc(C)on3)cc2)CC1` [Example 45, (4-{4-[4-(2-Methoxy-phenyl)-piperazin-1-yl]-butoxy}-benzyl)-(5-methyl-isoxazol-3-yl)-amine], the inhibition at 0.01 µM in assay [2] is 73.8%. For the compound `COc1ccccc1N1CCN(CCCCOc2ccc(CNc3cc(C)no3)cc2)CC1` [Example 46, (4-{4-[4-(2-methoxy-phenyl)-piperazin-1-yl]-butoxy}-benzyl)-(3-methyl-isoxazol-5-yl)-amine], in assay [2], at 0.01 µM the inhibition was 64.6%. Regarding `COc1ccccc1N1CCN(CCCCOc2ccc(CCn3nnnc3C)cc2)CC1` [Example 53, 1-(2-Methoxy-phenyl)-4-(4-{4-[2-(5-methyl-tetrazol-1-yl)-ethyl]-phenoxy}-butyl)-piperazine], in assay [2], the inhibition at 0.01 µM was 46%. In assay [2], `Clc1ccccc1N1CCN(CCCCOc2ccc(Cn3nccn3)cc2)CC1` [Example 56, 1-(2-chloro-phenyl)-4-[4-(4-[1,2,3]triazol-2-ylmethyl-phenoxy)-butyl]-piperazine] yielded an inhibition at 0.01 µM of 24.3%. Turning to `CNCCC(Oc1ccc(C(F)(F)F)cc1)c1ccccc1` (stereo not drawn) [Fluxetine, reference compound], the “% reduction” value in assay [1] is on record as 49. at 30 mg/kg, po %.
